From patent US5234934A, “Aminopropanol derivatives, process for their preparation and pharmaceutical compositions comprising the same” (priority 1989, dated 1993) come the findings set out here.

Read-outs that look alike come from different tables or passages of the source.

The nature of data set [1]: acute toxicity test in mice (Litchfield and Wilcoxon). It counts as in vivo, mouse. The conditions noted are these: mouse, in vivo, po., 14 days observation. On the procedure: The test for acute toxicity was carried out by using 10 white mice (CFLP strain) (both male and female), weighing 18 to 22 g in each dose group. The compounds of the invention were administered orally in a dose of 20 ml/kg.
The animals were kept in a plastic box on wood chips in a room of room temperature. They could consume tap water and standard mouse feed ad libitum. The toxicity data were determined by the method of Litchfield and Wilcoxon (Litchfield, J. T., Wilcoxon, F. W.: J. Pharmacol. Exp. Ther. 96, 99/1949/).

The subject of data set [2] is peristalty of stomach and intestines. The data set can be described thus: effect exerted on the peristalty of stomach and intestines (Stickney et al., carbon suspension). It counts as in vivo, mouse. The conditions noted are these: for ED50: Mus musculus, read-out: ED50 (antiperistaltic); for TI (therapeutic index): antiperistaltic. As for the experimental part:
The antiperistaltic effect of the compounds was examined by the method of Stickney et al. on white mice of both sexes, weighing 20 to 25 g. The compounds to be tested were administered per os 60 minutes before the addition of carbon suspension to groups containing 10 mice each. The animals of the control groups were treated at the same time and in the same manner with the carrier only. The mice were killed 10 minutes after the addition of the carbon suspension, and the whole length of the intestines as well as the length of the intestines filled with carbon suspension were measured.

Another data set has as its system gastric acid secretion. The data set can be described thus: gastric acid secretion test (Shay). It counts as in vivo, rat. The conditions noted are these: Rattus norvegicus, read-out: Inhibition of free acid, %. On the procedure:
The test was carried out according to Shay's operational method. […] On the day of the test the pylorus of the animals was bound under ether narcosis. The test compounds were administered orally 3 hours before the operation. The animals of the control group were administered with the carrier only. 4 hours after the operation the stomach was removed, the content thereof was centrifuged and the amount of free acid was determined by titration with 0.1N sodium hydroxide.

The next data set deals with hexobarbital narcosis. The data set can be described thus: narcosis potentiating effect (hexobarbital sleeping time). The conditions noted are these: for ED50: Mus musculus, po, read-out: ED50 (narcosis potentiation); for TI (therapeutic index): narcosis potentiation, mice, po.
The subject of data set [3] is aconitine-induced ECG alterations. As to the kind of experiment: animal or person. The conditions noted are these: Rattus norvegicus, iv; for change in vivo at 4 mg/kg: read-out: Effect % (antiarrhythmic). The class given is in vivo, rat. On the procedure: The test was carried out by using the modified method of Marmo et al. on rats weighing 160 to 200 g. The animals were narcotised by ethyl uretane (1.2 g/kg ip.). Aconitin was administered intravenously in a dose of 75 /ug/kg in the form of a bolus injection. The ECG alterations were monitored in standard II lead by 5 minutes after the administration of aconitine. The observed alterations were classified into classes 0 to 5. The compounds of the invention were administered 2 minutes or 60 minutes before the parenteral or oral administration of aconitine, respectively. […]
class 1: sometimes an extrasystole occurs class 2: each second one is an extrasystole class 3: extrasystoles in groups class 4: each one is an extrasystole class 5: fibrillation, death
(Marmo, E., DiGiacomo, S., Imperatore, A.: Arzeimittel-Forschung 20, 12/1970/)

The next data set relates to nervus ischiadicus. The data set can be described thus: local analgesic effect (Truant d'Amato's method). The class given is in vivo. The conditions noted are these: for EC50 %: 0.2 ml injected around nervus ischiadicus; for Duration of effect: in a conc. of 0.5%. On the procedure: The tests were carried out according to Truant d'Amato's method. 0.2 ml of test material was injected around the nervus ischiadicus in the middle of femur with a needle of 1 cm length. The criterion of analgesic effect was the lack of the motoric control of foot muscles.
The duration of effect was registered and the 50 percentile effective concentration (EC50) was calculated on the basis of the dose-effect curve. Lidocain was used as comparative material. (Truant, A. P., D'Amato, D.: Acta Chir Scand. 116, 351/1958/)

Protocol for hexobarbital narcosis: The narcosis potentiating effect of the compounds of the invention were examined on white mice, with 6 animals in each group. The mice were administered orally with the compounds of the invention, then both the control and the test groups were intravenously added 40 mg/kg of hexobarbital in order to make the mice sleep (Kaergard et al.).

As usually defined, the LD50 is the dose expected to kill half of the subjects tested. Low readings indicate greater toxicity, high ones lower toxicity. Usually ED50 stands for the dose at which the effect has come halfway, by size or by number of responders. `OC(CO/N=C1\CCCC\C1=C/c1ccccc1)CN1CCN(Cc2ccccc2)CC1` (racemic) [Example 6, R,S-2-(E)-Phenylmethylene-1-(E)-[3-(4-phenylmethyl-1-piperazinyl)-2-hydroxy-propoxyimino]-cyclohexane]: the LD50 at 336 h in data set [1] was more than 1000 mg/kg. For the same compound, in data set [2] (po., mice), the ED50 was 140 mg/kg and the “TI (therapeutic index)” value is on record as 7.

Regarding `CN1CCN(CC(O)CO/N=C2\CCCC\C2=C/c2ccccc2)CC1` (racemic) [Example 4, R,S-2-(E)-Phenylmethylene-1-(E)-[3-(4-methyl-1-piperazinyl)-2'-hydroxy-propoxyimino]-cyclohexane], in data set [1], the LD50 at 336 h came out at 1800 mg/kg. For the same compound, the inhibition in vivo at 200 mg/kg in the data set with gastric acid secretion (dose 200 mg/kg po., rats) was 77%.

In turn, `CCCCNCC(O)CO/N=C1\CCCC\C1=C/c1ccc(Cl)c(Cl)c1` (racemic) [Example 33, R,S-2-(E)-(3,4-Dichlorophenyl-methyl)-1-(E)-(3-butylamino-2-hydroxy-propoxyimino)-cyclohexane] registered an LD50 at 336 h in data set [1] of more than 1000 mg/kg. The inhibition in vivo at 200 mg/kg with gastric acid secretion (dose 200 mg/kg po., rats) was determined as 100%.

Compound `CCCCNCC(O)CO/N=C1\CCCC\C1=C/c1ccc(Cl)cc1` (racemic) [Example 29, R,S-2-(E)-(4-Chlorophenyl-methylene)-1-(E)-(3-butylamino-2-hydroxy-propoxyimino)-cyclohexane] returned an LD50 at 336 h in data set [1] of 1300 mg/kg. In addition, in the data set on gastric acid secretion (dose 260 mg/kg po., rats), the inhibition in vivo at 260 mg/kg came out at 87%. Also, in the data set with hexobarbital narcosis, the median effective dose (ED50) is 30 mg/kg and the “TI (therapeutic index)” value turned out to be 43.

In data set [1], `CN(CC(O)CO/N=C1\CCCC\C1=C/c1ccc(Cl)cc1)C1CCCCC1` (racemic) [Example 45, R,S-2-(E)-(4-Chlorophenyl-methylene)-1-(E)-[3'-(N-methyl-N-cyclohexylamino)-2-hydroxy-propoxyimino]-cyclohexane] came in with an LD50 at 336 h of more than 1000 mg/kg. Besides, in the data set on gastric acid secretion (dose 200 mg/kg po., rats), the inhibition in vivo at 200 mg/kg amounted to 100%.

`OC(CO/N=C1\CCCCCC\C1=C/c1ccccc1)CN1CCOCC1` (racemic) [Example 18, R,S-2-(E)-Phenylmethylene-1-(E)-(3-morpholino-2-hydroxy-propoxyimino)-cyclooctane] returned an LD50 at 336 h in data set [1] of more than 1000 mg/kg. Besides, the change in vivo at 4 mg/kg in data set [3] is -50%. Also, the inhibition in vivo at 200 mg/kg with gastric acid secretion (dose 200 mg/kg po., rats) was 68%. Also, in the data set with hexobarbital narcosis, the ED50 stood at 25 mg/kg and the “TI (therapeutic index)” value is given as more than 40.

For the compound `COc1cc(C(=S)N2CCOCC2)cc(OC)c1OC` [Trithiozine, reference compound], in the data set with gastric acid secretion (po), the inhibition in vivo at 100 mg/kg came to 30% and the inhibition in vivo at 400 mg/kg turned out to be 63%.

In data set [1], `CN1CCN(CC(O)CO/N=C2\CCCCCC\C2=C/c2ccccc2)CC1` (racemic) [Example 20, R,S-2-(E)-Phenylmethylene-1-(E)-[3-(4-methyl-1-piperazinyl)-2-hydroxy-propoxyimino]-cyclooctane] showed an LD50 at 336 h of more than 1000 mg/kg. Further, in data set [2] (po., mice), the ED50 is approximately 100 mg/kg and the “TI (therapeutic index)” value is “about 10”. Besides, in the data set on hexobarbital narcosis, the median effective dose (ED50) turned out to be 21.5 mg/kg and the “TI (therapeutic index)” value is more than 46.5.

On to `OC(CO/N=C1\CCCCC\C1=C/c1ccccc1)CN1CCOCC1` (racemic) [Example 15, R,S-2-(E)-Phenylmethylene-1-(E)-(3-morpholino-2-hydroxypropoxyimino)-cycloheptane], for which the LD50 at 336 h in data set [1] was more than 1000 mg/kg. In data set [2] (po., mice), the ED50 amounted to 140 mg/kg and the “TI (therapeutic index)” value was 7.

In the data set on nervus ischiadicus, `CCN(CC)CC(=O)Nc1c(C)cccc1C` [Lidocain, reference compound] returned an EC50 % of 0.19% and a Duration of effect of 34 min.

Take `COc1ccccc1/C=C1\CCCC\C1=N/OCC(O)CN1CCN(c2ccccc2OC)CC1` (racemic) [Example 38, R,S-2-(E)-(2-Methoxyphenyl-methylene)-1-(E)-{[4-(2-methoxyphenyl)-1-piperazinyl]-2-hydroxy-propoxyimino}-cyclohexane]: in data set [1], the median lethal dose (LD50) at 336 h is more than 1000 mg/kg. In data set [2] (po., mice), the 50% effective dose (ED50) stood at 23 mg/kg and the “TI (therapeutic index)” value was 44. Also, in the data set on hexobarbital narcosis, the ED50 is 61 mg/kg and the “TI (therapeutic index)” value came out at 16.

Compound `CCCNCC(O)CO/N=C1\CCCC\C1=C/c1c(Cl)cccc1Cl` (racemic) [Example 35, R,S-2-(E)-(2,6-Dichlorophenyl-methylene)-1-(E)-(3-propylamino-2-hydroxy-propoxyimino)-cyclohexane] registered an LD50 at 336 h in data set [1] of 600 mg/kg. Further, the ED50 in data set [3] (read-out: ED50 iv. (antiarrhythmic)) amounted to 1.84 mg/kg. For the same compound, in data set [3], the change in vivo at 4 mg/kg is -100%. Further, in the data set on hexobarbital narcosis, the ED50 turned out to be 11.5 mg/kg and the “TI (therapeutic index)” value came out at 52.

Take `CN/C(=N/CCSCc1nc[nH]c1C)NC#N` [Cimetidine, reference compound]: in the data set with gastric acid secretion (po), the inhibition in vivo at 100 mg/kg turned out to be 66% and the inhibition in vivo at 200 mg/kg stood at 91%.

Turning to `CC(C)N(CC(O)CO/N=C1\CCC\C1=C/c1ccccc1)C(C)C` (racemic) [Example 21, R,S-2-(E)-Phenylmethylene-{3-[bis-(1-methylethyl)-amino]-2-hydroxy-propoxyimino}-cyclopentane], in data set [1], the LD50 at 336 h was determined as 700 mg/kg. Moreover, the change in vivo at 4 mg/kg in data set [3] was -46%. Also, in the data set on nervus ischiadicus, the EC50 % was found to be 0.24% and the Duration of effect worked out at 89 min.

In data set [1], `C#CC(C)(C)NCC(O)CO/N=C1\CCCC\C1=C/c1ccc(Cl)cc1` (racemic) [Example 32, R,S-2-(E)-(4-Chlorophenyl-methylene)-1-(E)-[3-(1,1-dimethylpropin-2-yl-amino)-2-hydroxy-propoxyimino]-cyclohexane] registered an LD50 at 336 h of more than 2000 mg/kg. Also, the inhibition in vivo at 400 mg/kg with gastric acid secretion (dose 400 mg/kg po., rats) was 62%. In the data set with hexobarbital narcosis, the ED50 stood at 50 mg/kg and the “TI (therapeutic index)” value is recorded as more than 40.

As to `CC(C)CNCC(O)CO/N=C1\CCCC\C1=C/c1ccc(Cl)cc1` (racemic) [Example 30, R,S-2-(E)-(4-Chlorophenyl-methylene)-1-(E)-[3-(2-methylpropylamino)-2-hydroxy-propoxyimino]-cyclohexane], the 50% lethal dose (LD50) at 336 h in data set [1] was determined as 1100 mg/kg. Also, in data set [2] (po., mice), the ED50 was determined as 130 mg/kg and the “TI (therapeutic index)” value is 8.

`COc1ccc(/C=C2\CCCC\C2=N/OCC(O)CNCCCN(C)C)cc1` (racemic) [Example 41, R,S-2-(E)-(4-Methoxyphenyl-methylene)-1-(E)-[3-(3-dimethylamino-1-propylamino)-2-hydroxy-propoxyimino]-cyclohexane] showed an LD50 at 336 h in data set [1] of more than 1000 mg/kg. The inhibition in vivo at 200 mg/kg in the data set on gastric acid secretion (dose 200 mg/kg po., rats) came out at 67%.

Compound `OC(CO/N=C1\CCCC\C1=C/c1ccccc1)CN1CCN(c2ccccc2)CC1` (racemic) [Example 5, R,S-2-(E)-Phenylmethylene-1-(E)-[3-(4-phenyl-1-piperazinyl)-2-hydroxy-propoxyimino]-cyclohexane] displayed an LD50 at 336 h in data set [1] of more than 1000 mg/kg. In data set [2] (po., mice), the median effective dose (ED50) amounted to 70 mg/kg and the “TI (therapeutic index)” value is 14.

As to `OC(CO/N=C1\CCCC\C1=C/c1ccccc1)CN1CCN(c2ccc(Cl)cc2)CC1` (racemic) [Example 12, R,S-2-(E)-Phenylmethylene-1-(E)-{[4-(4-chlorophenyl)-1-piperazinyl]-2-hydroxy-propoxyimino}-cyclohexane], the LD50 at 336 h in data set [1] amounted to 1000 mg/kg. In data set [2] (po., mice), the ED50 is approximately 200 mg/kg and the “TI (therapeutic index)” value was “about 5”.

`COc1ccc(Cc2nccc3cc(OC)c(OC)cc23)cc1OC` [Papaverine, reference compound]: in data set [2] (280 mg/kg po., mice), the “inhibition (antiperistaltic)” value stood at 36%. Also, the ED50 in data set [2] (po) is more than 280 mg/kg.

In data set [1], `OCCN1CCN(CC(O)CO/N=C2\CCCC\C2=C/c2ccccc2)CC1` (racemic) [Example 13] registered a median lethal dose (LD50) at 336 h of more than 1000 mg/kg. Further, the inhibition in vivo at 200 mg/kg in the data set with gastric acid secretion (dose 200 mg/kg po., rats) came out at 74%.
